Results as given in the NIST ThermoML archive (doi:10.1016/j.tca.2016.03.033).

Experiments:
[1] = xn = mol fraction of the nth substance listed; settings: Ring tensiometer
[2] = Ring tensiometer

[F][La]([F])[F] [lanthanum trifluoride] + [F-].[Li+]
surface tension liquid-gas [mN/m], [1]
Settings	1223 K	1248 K	1273 K	1298 K	1323 K	1348 K	1373 K	1398 K	1423 K
x1 = 0.2	257.3	254.9	251.8	249.3	247	244.4	242.1	239.2	236.9
x1 = 0.25	264.7	262.1	259	256.3	253.6	251.2	248.8	246.7	243.9
x1 = 0.3	272.2	269.5	267.2	264.9	262.1	258.9	256.5	253.8	251.3
x1 = 0.35	–	–	–	274.2	271.4	268.3	265	262.2	259.8
x1 = 0.4	–	–	–	–	281.7	279.1	276.5	274	270.9

[F][Nd]([F])[F] [neodymium fluoride] + [F-].[Li+]
surface tension liquid-gas [mN/m], [1]
Settings	1223 K	1248 K	1273 K	1298 K	1323 K	1348 K	1373 K	1398 K	1423 K
x1 = 0.2	249.1	247.2	244.3	241.9	239.6	237.3	235.2	232.9	230.8
x1 = 0.25	258.3	255.7	253.5	250.9	249.3	246.3	243.6	240.4	239.1
x1 = 0.3	267.8	264.9	262.7	259.5	257	254.5	251.6	249.3	246.9
x1 = 0.35	279.2	276.8	273.3	270.4	268.1	266	262.7	260.4	257.3
x1 = 0.4	–	–	284.1	280.7	279.6	276.8	274.1	272.1	268.2

[Cl-].[K+] [potassium chloride]
Settings	surface tension liquid-gas [mN/m]
[2], 1230 K	86.14

[F-].[Na+] [sodium fluoride]
Settings	surface tension liquid-gas [mN/m]
[2], 1325 K	187.14
